# Test results from PubChem BioAssay (NCI).
#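 Where inhibition never reached the appropriate level, the endpoint shown equals the highest concentration tested. Otherwise, values were interpolated linearly from a five-concentration, 48-hour dose response in 96-well plates. The concentration for full growth arrest is given as TGI.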
# Key:
# Experiment in all cases: NCI tumour cell line growth inhibition, 48 h
# 786-0 renal = tested on: 786-0 renal
# A549 NSCLC = tested on: A549 NSCLC
# ACHN renal = tested on: ACHN renal
# BT-549 breast = tested on: BT-549 breast
# CAKI-1 renal = tested on: CAKI-1 renal
# CCRF-CEM leukemia = tested on: CCRF-CEM leukemia
# COLO 205 colon = tested on: COLO 205 colon
# DU-145 prostate = tested on: DU-145 prostate
# EKVX NSCLC = tested on: EKVX NSCLC
# HCC-2998 colon = tested on: HCC-2998 colon
# HCT-116 colon = tested on: HCT-116 colon
# HCT-15 colon = tested on: HCT-15 colon
# HL-60(TB) leukemia = tested on: HL-60(TB) leukemia
# HOP-62 NSCLC = tested on: HOP-62 NSCLC
# HOP-92 NSCLC = tested on: HOP-92 NSCLC
# HS 578T breast = tested on: HS 578T breast
# HT29 colon = tested on: HT29 colon
# IGROV1 ovarian = tested on: IGROV1 ovarian
# K-562 leukemia = tested on: K-562 leukemia
# KM12 colon = tested on: KM12 colon
# LOX IMVI melanoma = tested on: LOX IMVI melanoma
# M14 melanoma = tested on: M14 melanoma
# MALME-3M melanoma = tested on: MALME-3M melanoma
# MCF7 breast = tested on: MCF7 breast
# MDA-MB-231 breast = tested on: MDA-MB-231 breast
# MDA-MB-435 = tested on: MDA-MB-435
# MDA-N = tested on: MDA-N
# MOLT-4 leukemia = tested on: MOLT-4 leukemia
# NCI-H226 lung = tested on: NCI-H226 lung
# NCI-H23 lung = tested on: NCI-H23 lung
# NCI-H460 lung = tested on: NCI-H460 lung
# NCI-H522 lung = tested on: NCI-H522 lung
# NCI/ADR-RES ovarian = tested on: NCI/ADR-RES ovarian
# OVCAR-3 ovarian = tested on: OVCAR-3 ovarian
# OVCAR-4 ovarian = tested on: OVCAR-4 ovarian
# OVCAR-5 ovarian = tested on: OVCAR-5 ovarian
# OVCAR-8 ovarian = tested on: OVCAR-8 ovarian
# PC-3 prostate = tested on: PC-3 prostate
# RXF 393 renal = tested on: RXF 393 renal
# SF-268 CNS = tested on: SF-268 CNS
# SF-539 CNS = tested on: SF-539 CNS
# SK-MEL-2 melanoma = tested on: SK-MEL-2 melanoma
# SK-MEL-28 melanoma = tested on: SK-MEL-28 melanoma
# SK-MEL-5 melanoma = tested on: SK-MEL-5 melanoma
# SK-OV-3 ovarian = tested on: SK-OV-3 ovarian
# SN12C renal = tested on: SN12C renal
# SNB-19 CNS = tested on: SNB-19 CNS
# SNB-75 CNS = tested on: SNB-75 CNS
# SR leukemia = tested on: SR leukemia
# SW-620 colon = tested on: SW-620 colon
# T-47D breast = tested on: T-47D breast
# TK-10 renal = tested on: TK-10 renal
# U251 CNS = tested on: U251 CNS
# UACC-257 melanoma = tested on: UACC-257 melanoma
# UACC-62 melanoma = tested on: UACC-62 melanoma
# UO-31 renal = tested on: UO-31 renal
# A498 renal = tested on: A498 renal
# RPMI-8226 leukemia = tested on: RPMI-8226 leukemia
# SF-295 CNS = tested on: SF-295 CNS
structure (smiles),measurement,setting,value
Cc1ccc(S(=O)(=O)Oc2ccc(OS(=O)(=O)c3ccc(C)cc3)c3c2C(=O)c2ccccc2C3=O)cc1,TGI,786-0 renal,> 100 µM
same,TGI,A549 NSCLC,> 100 µM
same,TGI,ACHN renal,> 100 µM
same,TGI,BT-549 breast,> 100 µM
same,TGI,CAKI-1 renal,> 100 µM
same,TGI,CCRF-CEM leukemia,> 100 µM
same,TGI,COLO 205 colon,> 100 µM
same,TGI,DU-145 prostate,> 100 µM
same,TGI,EKVX NSCLC,> 100 µM
same,TGI,HCC-2998 colon,> 100 µM
same,TGI,HCT-116 colon,> 100 µM
same,TGI,HCT-15 colon,> 100 µM
same,TGI,HL-60(TB) leukemia,> 100 µM
same,TGI,HOP-62 NSCLC,> 100 µM
same,TGI,HOP-92 NSCLC,> 100 µM
same,TGI,HS 578T breast,> 100 µM
same,TGI,HT29 colon,> 100 µM
same,TGI,IGROV1 ovarian,> 100 µM
same,TGI,K-562 leukemia,> 100 µM
same,TGI,KM12 colon,> 100 µM
same,TGI,LOX IMVI melanoma,> 100 µM
same,TGI,M14 melanoma,> 100 µM
same,TGI,MALME-3M melanoma,> 100 µM
same,TGI,MCF7 breast,> 100 µM
same,TGI,MDA-MB-231 breast,> 100 µM
same,TGI,MDA-MB-435,> 100 µM
same,TGI,MDA-N,> 100 µM
same,TGI,MOLT-4 leukemia,> 100 µM
same,TGI,NCI-H226 lung,> 100 µM
same,TGI,NCI-H23 lung,> 100 µM
same,TGI,NCI-H460 lung,> 100 µM
same,TGI,NCI-H522 lung,> 100 µM
same,TGI,NCI/ADR-RES ovarian,> 100 µM
same,TGI,OVCAR-3 ovarian,> 100 µM
same,TGI,OVCAR-4 ovarian,> 100 µM
same,TGI,OVCAR-5 ovarian,> 100 µM
same,TGI,OVCAR-8 ovarian,> 100 µM
same,TGI,PC-3 prostate,> 100 µM
same,TGI,RXF 393 renal,68.6 µM
same,TGI,SF-268 CNS,> 100 µM
same,TGI,SF-539 CNS,> 100 µM
same,TGI,SK-MEL-2 melanoma,> 100 µM
same,TGI,SK-MEL-28 melanoma,> 100 µM
same,TGI,SK-MEL-5 melanoma,> 100 µM
same,TGI,SK-OV-3 ovarian,> 100 µM
same,TGI,SN12C renal,> 100 µM
same,TGI,SNB-19 CNS,> 100 µM
same,TGI,SNB-75 CNS,64.1 µM
same,TGI,SR leukemia,> 100 µM
same,TGI,SW-620 colon,> 100 µM
same,TGI,T-47D breast,> 100 µM
same,TGI,TK-10 renal,> 100 µM
same,TGI,U251 CNS,> 100 µM
same,TGI,UACC-257 melanoma,> 100 µM
same,TGI,UACC-62 melanoma,> 100 µM
same,TGI,UO-31 renal,> 100 µM
O=C(O)c1cc(=O)[nH]c(=S)[nH]1,TGI,786-0 renal,> 100 µM
same,TGI,A498 renal,> 100 µM
same,TGI,A549 NSCLC,> 100 µM
same,TGI,ACHN renal,> 100 µM
same,TGI,BT-549 breast,> 100 µM
same,TGI,CAKI-1 renal,> 100 µM
same,TGI,CCRF-CEM leukemia,> 100 µM
same,TGI,COLO 205 colon,> 100 µM
same,TGI,DU-145 prostate,> 100 µM
same,TGI,EKVX NSCLC,> 100 µM
same,TGI,HCC-2998 colon,> 100 µM
same,TGI,HCT-116 colon,> 100 µM
same,TGI,HCT-15 colon,> 100 µM
same,TGI,HL-60(TB) leukemia,> 100 µM
same,TGI,HOP-62 NSCLC,> 100 µM
same,TGI,HOP-92 NSCLC,> 100 µM
same,TGI,HS 578T breast,> 100 µM
same,TGI,HT29 colon,> 100 µM
same,TGI,IGROV1 ovarian,> 100 µM
same,TGI,K-562 leukemia,> 100 µM
same,TGI,KM12 colon,> 100 µM
same,TGI,LOX IMVI melanoma,> 100 µM
same,TGI,M14 melanoma,> 100 µM
same,TGI,MALME-3M melanoma,> 100 µM
same,TGI,MCF7 breast,> 100 µM
same,TGI,MDA-MB-231 breast,> 100 µM
same,TGI,MDA-MB-435,> 100 µM
same,TGI,MDA-N,> 100 µM
same,TGI,MOLT-4 leukemia,> 100 µM
same,TGI,NCI-H226 lung,> 100 µM
same,TGI,NCI-H23 lung,> 100 µM
same,TGI,NCI-H460 lung,> 100 µM
same,TGI,NCI-H522 lung,> 100 µM
same,TGI,NCI/ADR-RES ovarian,> 100 µM
same,TGI,OVCAR-3 ovarian,> 100 µM
same,TGI,OVCAR-4 ovarian,> 100 µM
same,TGI,OVCAR-5 ovarian,> 100 µM
same,TGI,OVCAR-8 ovarian,> 100 µM
same,TGI,PC-3 prostate,> 100 µM
same,TGI,RPMI-8226 leukemia,> 100 µM
same,TGI,RXF 393 renal,> 100 µM
same,TGI,SF-268 CNS,> 100 µM
same,TGI,SF-295 CNS,> 100 µM
same,TGI,SK-MEL-2 melanoma,> 100 µM
same,TGI,SK-MEL-28 melanoma,> 100 µM
same,TGI,SK-MEL-5 melanoma,> 100 µM
same,TGI,SK-OV-3 ovarian,> 100 µM
same,TGI,SN12C renal,> 100 µM
same,TGI,SNB-19 CNS,> 100 µM
same,TGI,SNB-75 CNS,> 100 µM
same,TGI,SW-620 colon,> 100 µM
same,TGI,T-47D breast,> 100 µM
same,TGI,TK-10 renal,> 100 µM
same,TGI,U251 CNS,> 100 µM
same,TGI,UACC-257 melanoma,> 100 µM
same,TGI,UACC-62 melanoma,> 100 µM
same,TGI,UO-31 renal,> 100 µM
